Measurements from patent US11897880B2, “7,8-dihydrobenzo[e]pyrido[3,4-c]azocine-2,5(3H,6H)-dione derivatives useful as a factor XIa inhibitors” (Janssen Pharmaceutica NV, priority 2021, dated 2024).
Where two headings read alike, the source gives them in different places.

How the values were obtained:
human plasma kallikrein = human plasma kallikrein (Homo sapiens, UniProt P03952); experiment: Kallikrein inhibition assay utilizing a quenched AMC peptide substrate (FLINT); format: biochemical; conditions: 30 min preincubation, 50 μM Z-Gly-Pro-Arg-AMC, 2 nM kallikrein
Chain of human plasma kallikrein (P03952 391-638 limits assumed): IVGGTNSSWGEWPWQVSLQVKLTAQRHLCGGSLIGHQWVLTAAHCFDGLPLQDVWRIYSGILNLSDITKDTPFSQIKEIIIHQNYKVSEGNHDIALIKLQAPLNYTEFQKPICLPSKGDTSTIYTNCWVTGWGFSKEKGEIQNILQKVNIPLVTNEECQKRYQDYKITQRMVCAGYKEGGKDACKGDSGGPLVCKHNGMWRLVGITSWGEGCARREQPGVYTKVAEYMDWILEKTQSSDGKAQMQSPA
Chain of human plasma kallikrein (P03952 20-390 partner limits assumed): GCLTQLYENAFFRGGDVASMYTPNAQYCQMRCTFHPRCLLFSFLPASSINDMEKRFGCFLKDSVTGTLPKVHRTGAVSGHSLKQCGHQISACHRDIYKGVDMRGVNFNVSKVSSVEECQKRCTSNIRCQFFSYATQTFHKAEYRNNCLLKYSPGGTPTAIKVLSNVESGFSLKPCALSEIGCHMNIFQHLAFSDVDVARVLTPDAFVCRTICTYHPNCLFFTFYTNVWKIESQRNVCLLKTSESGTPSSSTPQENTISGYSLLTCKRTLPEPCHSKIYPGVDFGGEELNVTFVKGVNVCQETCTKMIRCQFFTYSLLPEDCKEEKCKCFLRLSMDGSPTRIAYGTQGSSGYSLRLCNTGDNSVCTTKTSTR
Summary of the method: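 Human plasma kallikrein (2 nM final) was preincubated 30 min at room temperature with compound (11-point 3-fold dilution, top 1 μM, 2% DMSO) in pH 7.5 Tris buffer with CaCl2, BSA and CHAPS. Z-Gly-Pro-Arg-AMC (50 μM final) fluorescence was read at 340/440 nm every 5 min for 30 min. IC50 came from a 4-parameter logistic fit.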

Factor XIa = Factor XIa (Homo sapiens, UniProt P03951); experiment: Factor XIa inhibition assay utilizing a fluorophore-quencher pair peptide substrate (FLINT); format: biochemical; conditions: for IC50: read-out: FXIa IC50; for Ki: read-out: FXIa Ki
Chain of Factor XIa (P03951 388-625 limits assumed): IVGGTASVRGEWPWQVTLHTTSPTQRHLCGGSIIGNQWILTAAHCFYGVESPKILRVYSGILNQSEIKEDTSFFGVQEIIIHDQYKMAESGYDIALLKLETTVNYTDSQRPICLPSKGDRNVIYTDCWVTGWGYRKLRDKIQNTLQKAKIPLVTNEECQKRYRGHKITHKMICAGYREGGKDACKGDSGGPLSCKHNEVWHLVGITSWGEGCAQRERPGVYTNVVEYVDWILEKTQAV
Chain of Factor XIa (P03951 19-387 partner limits assumed): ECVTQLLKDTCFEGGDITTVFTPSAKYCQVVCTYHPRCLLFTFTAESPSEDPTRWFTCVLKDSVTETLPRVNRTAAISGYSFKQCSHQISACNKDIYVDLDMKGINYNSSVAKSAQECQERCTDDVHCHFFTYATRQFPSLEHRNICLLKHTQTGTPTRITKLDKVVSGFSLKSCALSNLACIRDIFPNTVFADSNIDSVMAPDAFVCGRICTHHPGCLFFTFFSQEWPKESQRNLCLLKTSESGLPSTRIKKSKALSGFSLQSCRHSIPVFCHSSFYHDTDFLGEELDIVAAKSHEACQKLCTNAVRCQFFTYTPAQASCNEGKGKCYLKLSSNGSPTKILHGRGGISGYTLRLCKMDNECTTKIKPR
Summary of the method: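 Enzyme preincubated 30 min at room temperature with compound (11-point 3-fold dilution, top 100 nM, 2% DMSO), then 15 μM 5Fam-KLTRAETV-K5Tamra substrate added. Buffer: 50 mM Tris pH 7.5, 100 mM NaCl, 5 mM CaCl2, 0.1 mg/mL BSA, 0.03% CHAPS. Fluorescence (485/520 nm) read kinetically over 30 min; IC50 from 4-parameter logistic fit.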

[1] = 30 min preincubation, 5Fam-KLTRAETV-K5Tamra substrate 15 μM final, kinetic reads
[2] = cells that print μM themselves in the nM column
[3] = cells that print μM themselves in the nM column, same assay conditions

SMILES | IC50 (human plasma kallikrein) [µM] | IC50 (Factor XIa; [1]) [µM] | Ki (Factor XIa) [µM] | Ki (Factor XIa; [2]) [µM] | IC50 (Factor XIa; [3]) [µM]
Nc1ccc(-c2cnc([C@H]3CCc4c5c(cc(=O)n43)-c3c(ccc(Cl)c3F)CCNC5=O)[nH]2)c(F)n1 (stereo in doubt) [Compound 47, (R*)-12-(5-(6-amino-2-fluoropyridin-3-yl)-1H-imidazol-2-yl)-7-chloro-8-fluoro-3,4,13,14-tetrahydrobenzo[5,6]azocino[4,3-g]indolizine-1,10(2H,12H)-dione] | 0.4 | 0.005 | 0.0025 | – | –
O=C1NC2(CC2)Cc2ccc(Cl)c(F)c2-c2cc(=O)n3c(c21)CC[C@@H]3c1ncc(-c2ccc3[nH]ccc3c2)[nH]1 (single isomer, unassigned) [Compound 14, (R*)-12-(5-(1H-indol-5-yl)-1H-imidazol-2-yl)-7-chloro-8-fluoro-13,14-dihydro-2H-spiro[benzo[5,6]azocino[4,3-g]indolizine-3,1′-cyclopropane]-1,10(4H,12H)-dione] | > 10 | – | – | 1.02 | 2.03
Cn1nncc1-c1cnc([C@@H]2CCc3c4c(cc(=O)n32)-c2c(ccc(Cl)c2F)CCNC4=O)[nH]1 (stereo in doubt) [Compound 44, (S*)-7-chloro-8-fluoro-12-(5-(1-methyl-1H-1,2,3-triazol-5-yl)-1H-imidazol-2-yl)-3,4,13,14-tetrahydrobenzo[5,6]azocino[4,3-g]indolizine-1,10(2H,12H)-dione] | > 10 | – | – | > 5 | > 10
Cn1cncc1-c1cnc([C@@H]2CCc3c4c(cc(=O)n32)-c2c(ccc(Cl)c2F)CC2(CC2)NC4=O)[nH]1 (stereo in doubt) [Compound 50, (S*)-7-chloro-8-fluoro-12-(3′-methyl-3H,3′H-[4,4′-biimidazol]-2-yl)-13,14-dihydro-2H-spiro[benzo[5,6]azocino[4,3-g]indolizine-3,1′-cyclopropane]-1,10(4H,12H)-dione] | > 20 | 0.301 | 0.15 | – | –
Nc1ccc(-c2cnc([C@H]3CCc4c5c(cc(=O)n43)-c3c(ccc(Cl)c3F)CC3(CC3)NC5=O)[nH]2)c(F)n1 (stereo in doubt) [Compound 54, (R*)-12-(5-(6-amino-2-fluoropyridin-3-yl)-1H-imidazol-2-yl)-7-chloro-8-fluoro-13,14-dihydro-2H-spiro[benzo[5,6]azocino[4,3-g]indolizine-3,1′-cyclopropane]-1,10(4H,12H)-dione] | > 10 | 0.224 | 0.112 | – | –
O=C1NC2(CC2)Cc2ccc(Cl)c(F)c2-c2cc(=O)n3c(c21)CC[C@H]3c1ncc(-c2ccc3[nH]ccc3c2)[nH]1 (single isomer, unassigned) [Compound 16, (S*)-12-(5-(1H-indol-5-yl)-1H-imidazol-2-yl)-7-chloro-8-fluoro-13,14-dihydro-2H-spiro[benzo[5,6]azocino[4,3-g]indolizine-3,1′-cyclopropane]-1,10(4H,12H)-dione] | > 10 | – | 0.535 | – | 1.07
O=C1NC2(CC2)Cc2ccc(Cl)c(F)c2-c2cc(=O)n(C(CC3CC3)c3ncc(-c4ccncc4)[nH]3)cc21 (single isomer, unassigned) [Compound 66, (R*)-11-chloro-3-(2-cyclopropyl-1-(5-(pyridin-4-yl)-1H-imidazol-2-yl)ethyl)-12-fluoro-3H-spiro[benzo[e]pyrido[3,4-c]azocine-7,1′-cyclopropane]-2,5(6H,8H)-dione] | > 10 | 0.183 | 0.0917 | – | –
O=C1NC2(CC2)Cc2ccc(Cl)c(F)c2-c2cc(=O)n3c(c21)CC[C@H]3c1ncc(-c2ccc3cncn3c2)[nH]1 (stereo in doubt) [Compound 23, (S*)-7-chloro-8-fluoro-12-(5-(imidazo[1,5-a]pyridin-6-yl)-1H-imidazol-2-yl)-13,14-dihydro-2H-spiro[benzo[5,6]azocino[4,3-g]indolizine-3,1′-cyclopropane]-1,10(4H,12H)-dione] | 0.54 | 0.007 | 0.0035 | – | –
COC(=O)Nc1ccc(-c2cnc(C(CC3CC3)n3cc4c(cc3=O)-c3c(ccc(Cl)c3F)CC3(CC3)NC4=O)[nH]2)cc1 (single isomer, unassigned) [Compound 62, Methyl (R*)-(4-(2-(1-(11-chloro-12-fluoro-2,5-dioxo-2,5,6,8-tetrahydro-3H-spiro[benzo[e]pyrido[3,4-c]azocine-7,1′-cyclopropan]-3-yl)-2-cyclopropylethyl)-1H-imidazol-5-yl)phenyl)carbamate] | 5.37 | 0.0486 | 0.0243 | – | –
Cn1cc(-c2cnc(C(CC3CC3)n3cc4c(cc3=O)-c3c(ccc(Cl)c3F)CC3(CC3)NC4=O)[nH]2)ccc1=O (single isomer, unassigned) [Compound 63, (S*)-11-chloro-3-(2-cyclopropyl-1-(5-(1-methyl-6-oxo-1,6-dihydropyridin-3-yl)-1H-imidazol-2-yl)ethyl)-12-fluoro-3H-spiro[benzo[e]pyrido[3,4-c]azocine-7,1′-cyclopropan]-2,5(6H,8H)-dione] | > 10 | – | 0.578 | – | 1.16
O=C1NC2(CC2)Cc2ccc(Cl)c(F)c2-c2cc(=O)n3c(c21)CC[C@H]3c1ncc(-c2ccn3cnnc3c2)[nH]1 (stereo in doubt) [Compound 15, (S*)-12-(5-([1,2,4]triazolo[4,3-a]pyridin-7-yl)-1H-imidazol-2-yl)-7-chloro-8-fluoro-13,14-dihydro-2H-spiro[benzo[5,6]azocino[4,3-g]indolizine-3,1′-cyclopropane]-1,10(4H,12H)-dione] | > 10 | – | – | 2.91 | 5.82
CC1(C)Cc2ccc(Cl)c(F)c2-c2cc(=O)n3c(c2C(=O)N1)CC[C@H]3c1ncc(-c2ccc(N)nc2F)[nH]1 (single isomer, unassigned) [Compound 20, (S*)-12-(5-(6-amino-2-fluoropyridin-3-yl)-1H-imidazol-2-yl)-7-chloro-8-fluoro-3,3-dimethyl-3,4,13,14-tetrahydrobenzo[5,6]azocino[4,3-g]indolizine-1,10(2H,12H)-dione] | > 10 | – | – | 3.83 | 7.65
Cn1cc(-c2cnc(C(CC3CC3)n3cc4c(cc3=O)-c3c(ccc(Cl)c3F)CC3(CC3)NC4=O)[nH]2)ccc1=O (single isomer, unassigned) [Compound 60, (R*)-11-chloro-3-(2-cyclopropyl-1-(5-(1-methyl-6-oxo-1,6-dihydropyridin-3-yl)-1H-imidazol-2-yl)ethyl)-12-fluoro-3H-spiro[benzo[e]pyrido[3,4-c]azocine-7,1′-cyclopropane]-2,5(6H,8H)-dione] | > 10 | – | – | ~4.81 | ~9.61
O=C1NC2(CC2)Cc2ccc(Cl)c(F)c2-c2cc(=O)n(C(CC3CC3)c3ncc(-c4cc[n+]([O-])cc4)[nH]3)cc21 (single isomer, unassigned) [Compound 56, (S*)-4-(2-(1-(11-chloro-12-fluoro-2,5-dioxo-2,5,6,8-tetrahydro-3H-spiro[benzo[e]pyrido[3,4-c]azocine-7,1′-cyclopropan]-3-yl)-2-cyclopropylethyl)-1H-imidazol-5-yl)pyridine 1-oxide] | > 10 | 0.882 | 0.441 | – | –
Cn1nncc1-c1cnc([C@H]2CCc3c4c(cc(=O)n32)-c2c(ccc(Cl)c2F)CC2(CC2)NC4=O)[nH]1 (stereo in doubt) [Compound 43, (R*)-7-chloro-8-fluoro-12-(5-(1-methyl-1H-1,2,3-triazol-5-yl)-1H-imidazol-2-yl)-13,14-dihydro-2H-spiro[benzo[5,6]azocino[4,3-g]indolizine-3,1′-cyclopropane]-1,10(4H,12H)-dione] | > 10 | – | – | > 5 | > 10
O=C1NC2(CC2)Cc2ccc(Cl)c(F)c2-c2cc(=O)n3c(c21)CC[C@@H]3c1ncc(-c2ccn3cnnc3c2)[nH]1 (stereo in doubt) [Compound 18, (R*)-12-(5-([1,2,4]triazolo[4,3-a]pyridin-7-yl)-1H-imidazol-2-yl)-7-chloro-8-fluoro-13,14-dihydro-2H-spiro[benzo[5,6]azocino[4,3-g]indolizine-3,1′-cyclopropane]-1,10(4H,12H)-dione] | 0.82 | 0.0132 | 0.0066 | – | –
O=C1NC2(CC2)Cc2ccc(Cl)c(F)c2-c2cc(=O)n3c(c21)CC[C@@H]3c1ncc(-c2ccn3ccnc3c2)[nH]1 (stereo in doubt) [Compound 8, (R*)-7-chloro-8-fluoro-12-(5-(imidazo[1,2-a]pyridin-7-yl)-1H-imidazol-2-yl)-13,14-dihydro-2H-spiro[benzo[5,6]azocino[4,3-g]indolizine-3,1′-cyclopropane]-1,10(4H,12H)-dione] | 0.47 | 0.0019 | 0.0009 | – | –
Nc1ccc(-c2cnc([C@H]3CCc4c5c(cc(=O)n43)-c3c(ccc(Cl)c3F)CC3(CC3)N(CCO)C5=O)[nH]2)c(F)n1 (single isomer, unassigned) [Compound 12, (R*)-12-(5-(6-amino-2-fluoropyridin-3-yl)-1H-imidazol-2-yl)-7-chloro-8-fluoro-2-(2-hydroxyethyl)-13,14-dihydro-2H-spiro[benzo[5,6]azocino[4,3-g]indolizine-3,1′-cyclopropane]-1,10(4H,12H)-dione] | > 10 | 0.0692 | 0.0346 | – | –
